Data published in patent US10106571B2, “HCV polymerase inhibitors” (priority 2013, dated 2018).
Like-named read-outs stand apart in the source and are kept apart here.

How the values were obtained:
Format in all cases: cell-based
HCV GT1b L159F/L320F = HCV GT1b L159F/L320F mutant replicon; conditions: for EC50: Hepatitis C virus, GT1B, read-out: EC50 HCV GT1b L159F/L320F; for FC vs WT, HCV GT1b L159F/L320F: fold change of EC50 vs wild type
From the text: (§1) The compound of Example 2 was further evaluated to assess the antiviral activity against genotypes 1-6 of HCV, both wild type and a number of clinically relevant mutant strains. The result of the evaluation together with the average EC50 of the genotypes and the corresponding values for sofosbuvir are summarised in Tables 2 and 3.

HCV GT5a = HCV GT5a chimeric replicon; conditions: Hepatitis C virus, read-out: EC50 HCV GT5a*
From the text: as §1

HCV GT3a L159F/L320F = test: Genotype 3a transient replicon, L159F/L320F double mutant; conditions: for EC50: Hepatitis C virus; for FC vs WT, HCV GT3a* L159F/L320F: fold change of EC50 vs wild type
Procedure: (§2) Similarly, the L159F/L320F double mutant generated by exposure to the nucleoside mericitabine and conferring cross resistance to sofosbuvir (Tong et al 2013 J. Infect. Dis., 209 (5), 668-75) was prepared in a genotype 3a transient replicon as described above in Kylefjord et al. ibid.
as §1

[1] = test system: genotypes 1-6 of HCV, wild type; test: Average over wild type HCV genotype assays (Table 2); conditions: for EC50: Hepatitis C virus, arithmetic mean +/- SEM; for potency increase vs sofosbuvir: from AVG EC50
From the text: as §1

HCV GT2a virus = test: HCV GT2a virus; conditions: Hepatitis C virus, wild type, geometric mean
From the text: as §1

HCV GT1b (transient) = HCV GT1b (transient) replicon; conditions: Hepatitis C virus, read-out: EC50 HCV GT1b (transient)
From the text: as §1

HCV mutant strains = test: Average over HCV mutant assays (Table 3); conditions: for EC50: Hepatitis C virus, read-out: AVG EC50; for potency increase vs sofosbuvir: mutant assays, from AVG EC50
From the text: as §1

HCV GT1b S282T = HCV GT1b S282T mutant replicon; conditions: for EC50: Hepatitis C virus, GT1B, read-out: EC50 HCV GT1b S282T; for FC vs WT, HCV GT1b S282T: fold change of EC50 vs wild type
From the text: as §1

HCV GT1a = HCV GT1a chimeric replicon; conditions: Hepatitis C virus, read-out: EC50 HCV GT1a*
From the text: as §1

HCV GT2a replicon = test: HCV GT2a replicon; conditions: Hepatitis C virus, read-out: EC50 HCV GT2a replicon
From the text: as §1

HCV GT1a S282T = HCV GT1a S282T chimeric mutant replicon; conditions: for EC50: Hepatitis C virus, GT1A, read-out: EC50 HCV GT1a* S282T; for FC vs WT, HCV GT1a* S282T: fold change of EC50 vs wild type
From the text: as §1

HCV GT3a S282T = test: Genotype 3a transient replicon bearing the S282T mutation; conditions: for EC50: Hepatitis C virus; for FC vs WT, HCV GT3a* S282T: fold change of EC50 vs wild type
Procedure: (§3) The antiviral activity of commercially available sofosbuvir and the compound of Example 2 were compared in a genotype 3a transient replicon assay described in Kylefjord et al., J Virol. Methods 2014 195:156-63.
as §2, §1

HCV GT3a = test: Genotype 3a transient replicon assay (Kylefjord et al.); conditions: Hepatitis C virus
From the text: as §3, §1

HCV GT6a = HCV GT6a chimeric replicon; conditions: Hepatitis C virus, read-out: EC50 HCV GT6a*
From the text: as §1

[2] = test system: HCV type 1b replicon (Huh-7 luc/neo, Huh-Luc); test: Replicon assay, Huh-Luc cells with HCV type 1b replicon (stable), luciferase readout
From the text: The compounds of formula I may be examined for activity in the inhibition of HCV RNA replication in a cellular assay aimed at identifying compounds that inhibit a HCV functional cellular replicating cell line, also known as HCV replicons. A suitable cellular assay is based on a bicistronic expression construct, as described by Lohmann et al. (1999), Science vol. 285 pp. 110-113 with modifications described by Krieger et al. (2001), Journal of Virology 75: 4614-4624, in a multi-target screening strategy.
The assay utilizes the stably transfected cell line Huh-7 luc/neo (hereafter referred to as Huh-Luc). This cell line harbors an RNA encoding a bicistronic expression construct comprising the wild type NS3-NS5B regions of HCV type 1b translated from an Internal Ribosome Entry Site (IRES) from encephalomyocarditis virus (EMCV), preceded by a reporter portion (FfL-luciferase), and a selectable marker portion (neo^R, neomycine phosphotransferase). The construct is bordered by 5′ and 3′ NTRs (non-translated regions) from HCV type 1b. Continued culture of the replicon cells in the presence of G418 (neo^R) is dependent on the replication of the HCV RNA. The stably transfected replicon cells that express HCV RNA, which replicates autonomously and to high levels, encoding inter alia luciferase, are used for screening the antiviral compounds.
The replicon cells are plated in 384 well plates in the presence of the test and control compounds which are added in various concentrations. Following an incubation of three days, HCV replication is measured by assaying luciferase activity (using standard luciferase assay substrates and reagents and a Perkin Elmer ViewLux™ ultraHTS microplate imager). Replicon cells in the control cultures have high luciferase expression in the absence of any inhibitor. The inhibitory activity of a compound on luciferase activity is monitored on the Huh-Luc cells, enabling a dose-response curve for each test compound. EC50 values are then calculated, which value represents the amount of the compound required to decrease the level of detected luciferase activity by 50%, or more specifically, the ability of the genetically linked HCV replicon RNA to replicate.

HCV GT4a = HCV GT4a chimeric replicon; conditions: Hepatitis C virus, read-out: EC50 HCV GT4a*
From the text: as §1

[3] = GT3A, read-out: EC50 HCV GT3a* L159F/L320F
[4] = read-out: EC50, genotype 3a L159F/L320F double mutant
[5] = GT3A, read-out: EC50 HCV GT3a* S282T
[6] = read-out: EC50, genotype 3a S282T
[7] = read-out: EC50 against genotype 3a
[8] = Hepatitis C virus, GT1B, Huh-7, wild type, geometric mean, read-out: EC50 HCV GT1b (stable)

| SMILES | EC50 (HCV GT1b L159F/L320F) [nM] | FC vs WT, HCV GT1b L159F/L320F (HCV GT1b L159F/L320F) | EC50 (HCV GT5a) [nM] | EC50 (HCV GT3a L159F/L320F; [3]) [nM] | EC50 (HCV GT3a L159F/L320F; [4]) [nM] | FC vs WT, HCV GT3a* L159F/L320F (HCV GT3a L159F/L320F) | EC50 [1] [nM] | potency increase vs sofosbuvir [1] | EC50 (HCV GT2a virus) [nM] | EC50 (HCV GT1b (transient)) [nM] | EC50 (HCV mutant strains) [nM] | potency increase vs sofosbuvir (HCV mutant strains) | EC50 (HCV GT1b S282T) [nM] | FC vs WT, HCV GT1b S282T (HCV GT1b S282T) | EC50 (HCV GT1a) [nM] | EC50 (HCV GT2a replicon) [nM] | EC50 (HCV GT1a S282T) [nM] | FC vs WT, HCV GT1a* S282T (HCV GT1a S282T) | EC50 (HCV GT3a S282T; [5]) [nM] | EC50 (HCV GT3a S282T; [6]) [nM] | other results |
| --- | --- | --- | --- | --- | --- | --- | --- | --- | --- | --- | --- | --- | --- | --- | --- | --- | --- | --- | --- | --- | --- |
| CC(C)OC(=O)[C@H](C)NP(=O)(OC[C@H]1O[C@@H](n2ccc(=O)[nH]c2=O)[C@@](F)(Cl)[C@@H]1O)Oc1ccccc1 (stereo partly drawn) [Example 2, (2S)-isopropyl 2-(((((2R,3R,4S,5R)-4-chloro-5-(2,4-dioxo-3,4-dihydropyrimidin-1(2H)-yl)-4-fluoro-3-hydroxytetrahydrofuran-2-yl)methoxy)(phenoxy)phosphoryl)amino)propanoate] | 70 | 1.6 | 44 | 62 | 62 | 1.3 | 43 | 2.7 | 17 | 44 | 171 | 3.1 | 298 | 6.8 | 50 | 23 | 301 | 6.0 | 122 | 130 | FC vs WT, HCV GT3a* S282T (HCV GT3a S282T): 2.7; EC50 (HCV GT3a; GT3A, read-out: EC50 HCV GT3a*): 46 nM; EC50 (HCV GT3a; [7]): 72 nM; EC50 (HCV GT6a): 58 nM; EC50 [2, 8]: 45 nM; EC50 ([2]; Huh-Luc HCV 1b replicon, three days incubation, luciferase activity, read-out: EC50): 55 nM; EC50 (HCV GT4a): 59 nM |
| CC(C)OC(=O)[C@H](C)N[P@](=O)(OC[C@H]1O[C@@H](n2ccc(=O)[nH]c2=O)[C@](C)(F)[C@@H]1O)Oc1ccccc1 [sofosbuvir, reference compound] | 199 | 2.5 | 114 | 190 | 190 | 1.5 | 117 | 1.0 | 54 | 81 | 532 | 1.0 | 741 | 8.8 | 131 | 48 | 1010 | 7.7 | 521 | 480 | FC vs WT, HCV GT3a* S282T (HCV GT3a S282T): 4.0; EC50 (HCV GT3a; GT3A, read-out: EC50 HCV GT3a*): 129 nM; EC50 (HCV GT3a; [7]): 230 nM; EC50 (HCV GT6a): 179 nM; EC50 [2, 8]: 98 nM; EC50 (HCV GT4a): 218 nM |
